Laboratory results: patent US9796672B2, “Isoindoline compositions and methods for treating neurodegenerative disease” (Cognition Therapeutics, Inc., priority 2014, dated 2017)

How the values were obtained:
[1] = biological target: Sigma-1 receptor; assay: Sigma-1 receptor competitive radioligand binding assay; settings: read-out: Sigma-1 Receptor Affinity, Ki
Method: Radioligand binding assays for Sigma-1 receptors and Sigma-2 receptors were carried out by a commercial contract research organization. For Sigma-1 binding, various concentrations of test compounds from 100 μM to 1 nM were used to displace 8 nM [^3H](+)pentazocine from endogenous receptors on Jurkat cell membranes (Ganapathy M E et al. 1991, J Pharmacol. Exp. Ther. 289:251-260). 10 μM Haloperidol was used to define non-specific binding. […] 10 μM Haloperidol was used to define non-specific binding. Reactions were terminated by rapid filtration through Whatman GF/C filters using a Brandel 12R cell harvester followed by two washes with ice-cold buffer. Radioactivity on the dried filter discs was measured using a liquid scintillation analyzer (Tri-Carb 2900TR; PerkinElmer Life and Analytical Sciences). The displacement curves were plotted and the Ki values of the test ligands for the receptor subtypes were determined using GraphPad Prism (GraphPad Software Inc., San Diego, Calif.). The percentage specific binding was determined by dividing the difference between total bound (disintegrations per minute) and nonspecific bound (disintegrations per minute) by the total bound (disintegrations per minute).

[2] = biological target: Sigma-2 receptor; assay: Sigma-2 receptor competitive radioligand binding assay; design: species or system rat; settings: read-out: Sigma-2 Receptor Affinity, Ki
[3] = Mouse liver microsome (MLM) stability; assay type: in vitro ADME; settings: mouse, microsomes
Method: A first pharmacokinetic study was performed in microsomes of mice mouse liver microsomes, MLM) by a commercial contract research organization. The studies were performed according to Obach, R. S et al. (1997) J. Pharmacol. Exp. Ther., 283: 46-58, which is incorporated herein by reference.

[4] = biological target: potassium channel hERG (Homo sapiens (Human), UniProt Q12809); assay: In vitro toxicity, hERG inhibition; assay type: biochemical
Method: In vitro toxicity for Test Compounds is tested in a number of standard assays.

[5] = test system: neuronal cultures; assay: Functional neuronal phenotype in neuronal cultures; assay type: cell-based; design: key: Antagonist: antagonists (block Abeta signaling); Agonist: agonists (block Abeta signaling with U-shaped dose-response curve and toxicity at high doses); Inactive: inactive (no effect in neuronal cultures)
Method: Neuronal cultures are treated with various concentrations of sigma compounds for 24 hours and nuclear intensity compared to vehicle is measured.

[6] = test system: Abeta oligomer-induced membrane trafficking deficits in primary hippocampal neurons; assay: Membrane trafficking/exocytosis (MTT) assay; settings: read-out: Membrane Trafficking EC50; compound dosed prior to Abeta oligomer addition
Method: Primary hippocampal neurons from E18 Sprague-Dawley rat embryos were plated at optimized concentrations in 384 well plates in NB media (Invitrogen). Neurons were maintained in cultures for 3 weeks, with twice weekly feeding of NB media with N2 supplement (Invitrogen).
MTT reagent (3-(4,5-dimethylthizaol-2yl)-2,5diphenyl tetrazolium bromide) (Roche Molecular Biochemicals) was reconstituted in phosphate buffered saline to 5 mg/mL. 10 μL of MTT labeling reagent is added to each well and incubated at 37° C. for 1 h, then imaged. Exocytosis was assessed by automated microscopy and image processing to quantify the amount of endocytosed and exocytosed formazan.
Each assay plate was formatted so that compounds are tested with and without Abeta oligomer on each plate. […] Reduced formazan was first visible in intracellular vesicles. […] The dye precipitated in the aqueous environment of the culture and formed needle-shaped crystals on the surface of the neuron.

Sequence of potassium channel hERG (Q12809 whole entry): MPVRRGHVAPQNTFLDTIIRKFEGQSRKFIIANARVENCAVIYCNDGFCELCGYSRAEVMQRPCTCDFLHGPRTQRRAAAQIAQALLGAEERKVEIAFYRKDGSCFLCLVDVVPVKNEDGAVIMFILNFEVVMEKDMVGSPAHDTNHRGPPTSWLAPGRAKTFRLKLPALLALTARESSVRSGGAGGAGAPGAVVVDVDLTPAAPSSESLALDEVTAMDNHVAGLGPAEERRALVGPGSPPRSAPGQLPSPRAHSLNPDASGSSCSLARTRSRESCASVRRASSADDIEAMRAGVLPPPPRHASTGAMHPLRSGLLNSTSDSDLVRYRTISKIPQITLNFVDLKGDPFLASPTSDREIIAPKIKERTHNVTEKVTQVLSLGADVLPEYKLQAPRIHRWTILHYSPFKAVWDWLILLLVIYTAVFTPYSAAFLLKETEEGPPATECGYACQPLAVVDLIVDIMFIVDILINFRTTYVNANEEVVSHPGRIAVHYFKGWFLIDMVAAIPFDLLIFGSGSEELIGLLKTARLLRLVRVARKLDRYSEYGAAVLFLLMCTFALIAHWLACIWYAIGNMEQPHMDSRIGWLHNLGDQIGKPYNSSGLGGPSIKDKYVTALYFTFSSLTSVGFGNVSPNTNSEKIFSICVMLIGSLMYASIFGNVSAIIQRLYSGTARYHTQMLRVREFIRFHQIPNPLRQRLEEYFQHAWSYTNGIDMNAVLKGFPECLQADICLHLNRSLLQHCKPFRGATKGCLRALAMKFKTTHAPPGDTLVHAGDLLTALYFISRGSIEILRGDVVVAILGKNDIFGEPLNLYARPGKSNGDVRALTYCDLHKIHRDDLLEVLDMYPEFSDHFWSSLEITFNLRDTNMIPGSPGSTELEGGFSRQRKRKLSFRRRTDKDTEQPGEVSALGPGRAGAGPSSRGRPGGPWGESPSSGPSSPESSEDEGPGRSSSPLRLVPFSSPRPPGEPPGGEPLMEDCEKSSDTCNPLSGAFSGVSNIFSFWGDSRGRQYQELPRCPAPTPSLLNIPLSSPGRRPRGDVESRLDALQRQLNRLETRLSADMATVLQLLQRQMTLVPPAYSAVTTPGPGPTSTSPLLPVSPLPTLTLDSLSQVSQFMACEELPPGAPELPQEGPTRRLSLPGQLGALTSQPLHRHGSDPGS

Row | SMILES | Ki [1] [µM] | Ki [2] [µM] | Mouse liver microsomes, MLM t½ [3] [min] | IC50 [4] [µM] | neuronal phenotype [5] | EC50 [6] [µM]
1 | COc1cc(CC[C@@H](C)N2Cc3ccc(Cl)cc3C2)ccc1O [compound 1] | 0.031 | 0.025 | 11 | 0.43 | – | –
2 | C[C@H](CCc1ccc(Cl)c(Cl)c1)N1Cc2cccc(F)c2C1 [compound 9] | 0.017 | 0.0036 | 12 | 6.7 | Antagonist | 0.22
3 | COc1cc2c(cc1OC)CN([C@H](C)CCc1ccc(Cl)c(Cl)c1)C2 [compound 11] | 0.014 | 0.00044 | 61 | 0.29 | Antagonist | 0.7
4 | Cc1ccc2c(c1)CN([C@H](C)CCc1ccc(Cl)c(Cl)c1)C2 [compound 13] | – | – | 3 | 0.25 | Antagonist | 0.3
5 | COc1cc2c(cc1OC)CN([C@@H](C)CCc1ccc(Cl)c(Cl)c1)C2 [compound 20] | 0.00057 | 0.00067 | 43 | 0.66 | – | 0.067 to 0.6
6 | C[C@H](CCc1ccc(OC(=O)N(C)C)c(OC(F)(F)F)c1)N1Cc2ccc(F)cc2C1 [compound 43] | 0.38 | 0.14 | 5 | 0.67 | – | –
7 | COC[C@H](CCc1ccc(Cl)c(Cl)c1)N1Cc2ccc(F)cc2C1 [compound 46] | 0.094 | 0.16 | 5 | 1.6 | Inactive | –
8 | COc1cc(CCC(C)(C)N2Cc3ccc(F)cc3C2)ccc1OC(=O)N(C)C [compound 50] | 0.75 | 0.037 | 33 | 4.4 | weak and antagonist | –
9 | CC(C)(CCc1ccc(O)c(OC(F)(F)F)c1)N1Cc2c(F)ccc(F)c2C1 [compound 55] | 0.36 | 0.31 | 34 | 100 | – | –
10 | C[C@H](CCc1ccc(O)c(OC(C)(C)C)c1)N1Cc2ccc(S(C)(=O)=O)cc2C1 [compound 63] | 0.017 | 0.38 | 31 | 11 | Inactive | –
11 | COc1cc(CCC(C)(C)N2Cc3cccc(S(C)(=O)=O)c3C2)ccc1O [compound 64] | 0.18 | 0.0086 | 52 | 20 | Inactive | –
12 | CC(C)(CCc1ccc(O)c(OC(F)(F)F)c1)N1Cc2cccc(S(C)(=O)=O)c2C1 [compound 67] | 0.055 | 0.0081 | 39 | 44 | Antagonist | –
13 | CC(C)Oc1cc(CCC(C)(C)N2Cc3ccc(S(C)(=O)=O)cc3C2)ccc1O [compound 70] | 0.05 | 0.009 | 79 | 3.1 | Inactive | –
14 | COc1cc(CCC(C)(C)N2Cc3cccc(C(=O)N4CCOCC4)c3C2)ccc1O [compound 80] | – | 1.4 | 45 | 7.4 | Inactive | 100
15 | COc1cc(CCC(C)(C)N2Cc3cccc(C(=O)N(C)CCN(C)C)c3C2)ccc1O [compound 81] | – | – | 88 | 10 | Inactive | 100
16 | COc1cc(CCC(C)(C)N2Cc3cccc(C(=O)N4CCN(C)CC4)c3C2)ccc1O [compound 82] | – | – | 27 | 52 | Inactive | 100
17 | COCCNC(=O)c1cccc2c1CN(C(C)(C)CCc1ccc(O)c(OC)c1)C2 [compound 84] | 10 | 10 | 163 | 6.6 | – | 100
18 | COCCN(C)C(=O)c1cccc2c1CN(C(C)(C)CCc1ccc(O)c(OC)c1)C2 [compound 86] | 10 | 10 | 19 | 5.1 | – | –

Continued by falling Ki [2], values first:

Row | Ki [1] [µM] | Ki [2] [µM] | Mouse liver microsomes, MLM t½ [3] [min] | SMILES | IC50 [4] [µM] | neuronal phenotype [5] | EC50 [6] [µM]
19 | 0.41 | 1.6 | 5 | C[C@H](CCc1ccc(O)c(OC(C)(C)C)c1)N1Cc2c(F)ccc(F)c2C1 [60A] | 100 | Antagonist | > 20
20 | 0.077 | 0.8 | 66 | COc1cc(CC[C@@H](C)N2Cc3cccc(F)c3C2)ccc1OCCO [compound 51] | 1.2 | Neuroactive | –
21 | 10 | 0.36 | 194 | COc1cc(CCC(C)(C)N2Cc3cccc(C(=O)N(C)CCO)c3C2)ccc1O [compound 85] | 33 | – | –
22 | 1.3 | 0.19 | 41 | COc1cc(CC[C@@H](C)N2Cc3cccc(S(C)(=O)=O)c3C2)ccc1O [compound 65] | 26 | Neuroactive | –
23 | 0.0091 | 0.14 | 5 | CC(C)Oc1cc(CC[C@@H](C)N2Cc3ccc(F)cc3C2)ccc1O [compound 37] | 0.48 | – | –
24 | 1.3 | 0.14 | 29 | COc1cc(CCC(C)(C)N2Cc3cccc(F)c3C2)ccc1OCCO [compound 44] | 0.099 | Antagonist | –
25 | 0.027 | 0.076 | 75 | CC(C)Oc1cc(CC[C@@H](C)N2Cc3ccc(S(C)(=O)=O)cc3C2)ccc1O [compound 69] | 9.5 | Inactive | –
26 | 10 | 0.057 | 8 | CN(C)C(=O)c1cccc2c1CN(C(C)(C)CCc1ccc(O)c(OC(C)(C)C)c1)C2 [compound 59] | 18 | Inactive | –
27 | 0.0078 | 0.0089 | 6 | CC(C)Oc1ccc(CC[C@@H](C)N2Cc3cc4c(cc3C2)OCO4)cc1OC(C)C [compound 40] | 0.35 | – | –
28 | 0.0014 | 0.005 | 8 | C[C@H](CCc1ccc(Cl)c(Cl)c1)N1Cc2cc3c(cc2C1)OCO3 [compound 10] | 41 | Antagonist | 0.5
29 | 0.13 | 0.0026 | 10 | CC(C)(C)Oc1cc(CCC(C)(C)N2Cc3cccc(S(C)(=O)=O)c3C2)ccc1O [compound 66] | 19 | Inactive | –
30 | 0.069 | 0.0018 | 25 | C[C@H](CCc1ccc(Cl)c(Cl)c1)N1Cc2ccc3ccccc3c2C1 [compound 19] | 98 | Weak | 0.27
31 | 0.069 | 0.0011 | 86 | CC(C)COc1cc(CCC(C)(C)N2Cc3ccc(S(C)(=O)=O)cc3C2)ccc1O [compound 87] | 0.57 | – | –
